Data from US6913900B2, “Plasma prekallikrein activation and kallikrein production assay” (Nippon Zoki Pharmaceutical Co., Ltd., priority 2001, dated 2005).
Entries after “also recorded” stand apart in the source; their conditions may differ. Like-named read-outs stand apart in the source and are kept apart here.

Columns and labels:
[1] = test system: prekallikrein activating factor (PK activation); assay: Inhibition profile of PK activation (prekallikrein activation assay, kallikrein substrate S-2302, O.D. 405 nm); format: biochemical, human
Source text: In embodiments of the invention the reaction time may be fixed or “set.” The reaction time can be “set” by stopping the production of kallikrein, for example, by adding a prekallikrein activation inhibitor to the system of the present invention after a desired reaction time. Also, by adding a coloring or fluorescent synthetic substrate to the reaction system from the start or beginning, the produced amount of kallikrein (coloring or fluorescent intensity) may be observed at different lapses of time. […] When the reaction is stopped, the produced kallikrein can be quantitatively determined using an enzymatic activity of kallikrein as a target, for example, by applying a substrate to kallikrein.
When the reaction is stopped, the produced plasma kallikrein can be determined using an enzymatic activity of the plasma kallikrein as a target by utilizing a substrate to the plasma kallikrein.
(§1) Assays were performed in HEPES buffered saline (HBS) (10 mM Hepes, 137 mM NaCl, 4 mM KCl, 11 mM D-glucose, and 0.5 mg/ml RIA grade bovine serum albumin, pH 7.4), with a kallikrein specific substrate (0.6 mM S-2302). For assays using the cell-free system, 96 well disposable polystyrene microtiter plates (Dynatech Laboratories, Chantilly, Va.) were used. These microtiter plates were pretreated with 1% polyethylene glycol (Aquacide III, Calbiochem, Calif.) in HBS for two hours to prevent adsorption of proteins to polystyrene. The absorbance (O.D. at 405 nm or optical density at 405 nm) was monitored at room temperature on a Molecular Devices (Sunnyvale, Calif.) THERMOmax microplate reader. Just prior to the assay all the proteins were treated with 2.0 mM (4-amidinophenyl)methanesulfonyl fluoride (APMSF) for 15 minutes at pH 5.5, after which they were diluted 1:100 with HBS and incubated for 45 minutes to allow for the decomposition of any unreacted APMSF at the neutral pH. The proteins were treated with APMSF before use and were inactivated for the sake of safety.

[2] = test system: HSP 90-dependent prekallikrein activation; assay: HSP 90-dependent prekallikrein activation (HSP 90, HK, zinc, PK, S-2302); format: biochemical, human; details: purified HSP 90 activator, HK and zinc present
Description: as §1
HSP 90 was confirmed as a prekallikrein activator, which was functionally indistinguishable from the cytosolic extract (FIG. 2). A HUVEC activator system was functionally effective as well (FIG. 1). […] The incubation mixture used is as follows: […]

[3] = test system: activation of prekallikrein in the presence of phosphate and zinc ions; assay: Prekallikrein activation by phosphate ion (PBS, zinc, HK, PK, S-2302); format: biochemical; details: phosphate ion activator, no FXIIa, HUVEC or HSP 90
Description: as §1, with “safety. […]” for “safety.”

[Cl][Hg][Cl] [HgCl2]
inhibition of the prekallikrein activator in this system (in words) [1]: good inhibitors
% inhibition of PK activation ([1]; inhibitor concentration 1 mM): 98%

O[C@@H](CS)[C@@H](O)CS [DTT]
% inhibition of PK activation ([1]; inhibitor concentration 10 mM): 69.1%

N[C@@H](CCC(=O)N[C@@H](CS)C(=O)NCC(=O)O)C(=O)O [Glutathione]
% inhibition of PK activation ([1]; inhibitor concentration 100 μM): 18.6%

Corn Trypsin Inhibitor
inhibition of HSP 90-dependent prekallikrein activation (in words) [2]: inhibited by CTI
% inhibition of PK activation ([1]; inhibitor concentration 10 μM): 94.3%
inhibition of the prekallikrein activator in this system (in words) ([1]; listed as CTI): good inhibitors; also recorded: could be inhibited by CTI

Cystatin
% inhibition of PK activation ([1]; inhibitor concentration 10 μg/ml): 4.5%

CC(C)Cc1ccc(C(C)C(=O)O)cc1 (stereo not shown) [Ibuprofen]
inhibition of prekallikrein activation in the presence of phosphate and zinc ions (in words) [3]: inhibited by Ibuprofen dose-dependently
inhibition of HSP 90-dependent prekallikrein activation (in words) [2]: inhibited by Ibuprofen dose-dependently

NC(=O)CI [Iodoacetamide]
% inhibition of PK activation ([1]; inhibitor concentration 10 mM): 7%

OCCS [Mercaptoethanol]
inhibition of the prekallikrein activator in this system (in words) [1]: good inhibitors
% inhibition of PK activation ([1]; inhibitor concentration 5%): 85.5%

C[C@H](CS)C(=O)N1CCC[C@H]1C(=O)O [Captopril]
inhibition of the prekallikrein activator in this system (in words) [1]: good inhibitors
% inhibition of PK activation ([1]; inhibitor concentration 10 mM): 97.9%

Aprotinin
inhibition of the prekallikrein activator in this system (in words) [1]: good inhibitors
% inhibition of PK activation ([1]; inhibitor concentration 100 μM): 96.4%

O=C(O)CN(CCN(CC(=O)O)CC(=O)O)CC(=O)O [EDTA]
% inhibition of PK activation [1]: 85.4%
inhibition of the prekallikrein activator in this system (in words) [1]: good inhibitors

N[C@@H](CS)C(=O)O [Cysteine]
% inhibition of PK activation ([1]; inhibitor concentration 10 mM): 59.6%

B1: SBTI: soybean trypsin inhibitor (SBTI) (protein, UniProt P01070 25-205, looked up)
Trypsin inhibitor A: DFVLDNEGNPLENGGTYYILSDITAFGGIRAAPTGNERCPLTVVQSRNELDKGIGTIISSPYRIRFIAEGHPLSLKFDSFAVIMLCVGIPTEWSVVEDLPEGPAVKIGENKDAMDGWFRLERVSDDEFNNYKLVFCPQQAEDDKCGDIGISIDHDDGTRRLVVSKNKPLVVQFQKLDKESL
inhibition of the prekallikrein activator in this system (in words) [1]: good inhibitors
% inhibition of PK activation ([1]; inhibitor concentration 50 μg/ml): 98.6%
